Measured values reported in publication PMC7255104, “Receptor Characterization and Functional Activity of Pyrokinins on the Hindgut in the Adult Mosquito, Aedes aegypti” (Frontiers in Physiology, 2020).
pIC50: −log10 of the molar value. Where a SMILES comes first, the peptide text is derived from it. [ ]: non-standard residue; d: D form. pGlu = O=C1CC[C@@H](C(=O)O)N1

Key:
A. aegypti PK1-R = assay: Heterologous functional receptor assay (aequorin bioluminescence), PK1-R; format: cell-based, Aedes aegypti; conditions: CHO-K1 cells expressing PK1-R; luminescent response
Text: The complete open reading frame was amplified based on the partial ([Nene et al., 2007]) and complete sequences ([Choi et al., 2013]) reported earlier for the A. aegypti PK1-R (Genbank accession: EAT35008.1) and PK2-R (Genbank accession: KC155994.1). Forward 5′-[…]-3′ (PK1-R) or 5′-[…]-3′ (PK2-R) and reverse 5′-[…]-3′ (PK1-R) or 5′-[…]-3′ (PK2-R) primers were designed over the start and stop codons (underlined), respectively, and used to amplify the complete coding sequence using Q5 High-Fidelity DNA polymerase following manufacturer recommendations (New England Biolabs, Whitby, ON). […] The resulting products were cloned into pGEM-T Easy sequencing vector, and miniprep samples were sequenced to verify base accuracy. […]
Chinese hamster ovary cells (CHO-K1) described previously ([Paluzzi et al., 2012]; [Gondalia et al., 2016]; [Wahedi and Paluzzi, 2018]) were grown in Dulbecco’s modified eagles medium: nutrient F12 (DMEM:F12) media containing 10% heat-inactivated fetal bovine serum (FBS; Wisent, St. Bruno, QC, Canada), 200 μg/mL geneticin, and antimycotic-antibiotic mixture as described previously ([Wahedi and Paluzzi, 2018]). […] Various concentrations of synthesized PK peptides and other peptides (purity > 90%; Genscript, Piscataway, NJ, United States) were prepared in BSA media and loaded in quadruplicate into white 96-well luminescence plates (Greiner Bio-One, Germany). […]

A. aegypti PK2-R = biological target: T1, A. aegypti PK2-R (Aedes aegypti, UniProt V9P4J1); assay: Heterologous functional receptor assay (aequorin bioluminescence), PK2-R; format: cell-based; conditions: CHO-K1 cells expressing PK2-R
T1 sequence (V9P4J1 1-638): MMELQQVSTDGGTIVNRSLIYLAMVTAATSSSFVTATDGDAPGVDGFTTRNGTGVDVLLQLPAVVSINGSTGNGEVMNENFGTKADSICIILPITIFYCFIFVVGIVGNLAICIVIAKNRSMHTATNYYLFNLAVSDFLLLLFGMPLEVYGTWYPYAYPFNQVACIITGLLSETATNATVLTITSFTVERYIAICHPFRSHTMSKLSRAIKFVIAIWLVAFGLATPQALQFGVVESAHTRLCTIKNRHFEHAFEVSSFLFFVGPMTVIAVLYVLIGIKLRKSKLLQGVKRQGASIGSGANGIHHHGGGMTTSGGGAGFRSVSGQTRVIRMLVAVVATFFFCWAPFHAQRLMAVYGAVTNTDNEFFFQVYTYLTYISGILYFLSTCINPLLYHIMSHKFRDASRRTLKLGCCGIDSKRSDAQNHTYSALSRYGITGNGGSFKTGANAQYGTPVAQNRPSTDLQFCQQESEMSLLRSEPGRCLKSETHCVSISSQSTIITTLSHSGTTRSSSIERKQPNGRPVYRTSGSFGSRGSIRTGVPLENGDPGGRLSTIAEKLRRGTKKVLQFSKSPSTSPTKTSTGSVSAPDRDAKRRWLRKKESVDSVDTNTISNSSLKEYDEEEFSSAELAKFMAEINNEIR
Text: The complete open reading frame was amplified based on the partial ([Nene et al., 2007]) and complete sequences ([Choi et al., 2013]) reported earlier for the A. aegypti PK1-R (Genbank accession: EAT35008.1) and PK2-R (Genbank accession: KC155994.1). Forward 5′-[…]-3′ (PK1-R) or 5′-[…]-3′ (PK2-R) and reverse 5′-[…]-3′ (PK1-R) or 5′-[…]-3′ (PK2-R) primers were designed over the start and stop codons (underlined), respectively, and used to amplify the complete coding sequence using Q5 High-Fidelity DNA polymerase following manufacturer recommendations (New England Biolabs, Whitby, ON). […] The resulting products were cloned into pGEM-T Easy sequencing vector, and miniprep samples were sequenced to verify base accuracy. The receptor constructs were excised using standard restriction enzyme digestion and subcloned into the mammalian expression vector, pcDNA 3.1^+ (Life Technologies, Burlington, ON, Canada). Transfection quality plasmid DNA was purified from an overnight bacterial culture using the PureLink MidiPrep Kit (Invitrogen, Burlington, ON, Canada) following manufacturer guidelines.
Chinese hamster ovary cells (CHO-K1) described previously ([Paluzzi et al., 2012]; [Gondalia et al., 2016]; [Wahedi and Paluzzi, 2018]) were grown in Dulbecco’s modified eagles medium: nutrient F12 (DMEM:F12) media containing 10% heat-inactivated fetal bovine serum (FBS; Wisent, St. Bruno, QC, Canada), 200 μg/mL geneticin, and antimycotic-antibiotic mixture as described previously ([Wahedi and Paluzzi, 2018]). […] Various concentrations of synthesized PK peptides and other peptides (purity > 90%; Genscript, Piscataway, NJ, United States) were prepared in BSA media and loaded in quadruplicate into white 96-well luminescence plates (Greiner Bio-One, Germany).
Luminescence responses to A. aegypti CAPA-1 (GPTVGLFAFPRV-NH2), CAPA-2 (pQGLVPFPRV-NH2) and CAPA-PK1 (AGNSGANSGMWFGPRL-NH2) peptides, along with the R. prolixus PK2 orthologs, PK2a (NTVNFSPRL-NH2), and PK2b (SPPFAPRL-NH2) were examined. A list of peptides used in this study and sequence comparison to native A. aegypti pyrokinin peptides is found in Supplementary Table S1. Cells prepared for the functional assay were loaded into each well of the plate using an automated injector unit and luminescent response was measured with a Synergy 2 Multi-Mode Microplate Reader (BioTek, Winooski, VT, United States). Negative controls were carried out using BSA media alone whereas 50 μM ATP, which activates endogenously expressed purinoceptors ([Iredale and Hill, 1993]; [Michel et al., 1998]), was used as a positive control. Luminescence responses were normalized to ATP responses and analyzed in GraphPad Prism 7.02 (GraphPad Software, San Diego, CA, United States). EC50 values were determined using dose-response curves from multiple biological replicates.

[1] = test system: anti-RhoprCAPA-2 primary antiserum (antigen EGGFISFPRV-NH2); assay: Competitive ELISA for antibody cross-reactivity; format: binding, rabbit; conditions: antiserum 1:1000; absorbance at 450 nm; mean ± SEM, n = 4; read-out: IC50, competitive ELISA against 1 nM biotinylated-DromeCAPA
Description: In brief, 96-well plates were coated with anti-RhoprCAPA-2 primary antiserum diluted to 1:1000 in carbonate buffer (15 mM Na2CO3-H2O and 35 mM NaHCO3 in water; pH 9.4) and incubated overnight at 4°C. Plate contents were discarded, blotted, and rinsed three times with wash buffer (350 mM NaCl, 2.7 mM KCl, 1.5 mM KH2PO4, 5.15 mM Na2HPO4-H2O, and 0.05% Tween-20 (v/v) in water). Wells were then incubated for 1.5 h on a rocker with block buffer [0.5% skim milk powder (w/v) and 0.5% BSA (w/v) in PBS]. The block solution was discarded, and standard solutions were added (100 μL/well). Standards consisted of AedaeCAPA-1 and AedaeCAPA-2 diluted in block buffer to achieve concentrations ranging from 250 pM to 250 nM, or AedaeCAPA-PK1 and RhoprPK2b from 4.8 nM to 75 uM. After a 1.5 h incubation on a rocker, 1 nM biotinylated-DromeCAPA diluted in block buffer ([MacMillan et al., 2018]) was added (100 μL/well) to compete with the unlabeled peptide standards for antibody binding. Following overnight incubation at 4°C, the wells were washed four times with wash buffer, and incubated at 4°C for 1.5 h with Avidin-HRP (1:2000; Bio-Rad, Mississauga, ON, Canada). […] Reactions were stopped with 100 μL/well 2N HCl and absorbance at 450 nm was measured using a Synergy 2 Multi-Mode Microplate Reader (BioTek, Winooski, VT, United States).

[2] = test system: isolated recta of A. aegypti; assay: Rectal contraction assay (impedance converter); design: species or system Aedes aegypti; conditions: 1 μM, 2-min interval, mean of 6-18 preparations
Description: Hindgut contraction assays were conducted on isolated […] of female A. aegypti. […] The isolated tissue was secured with minutien pins within a Sylgard-lined petri-dish. Given its high sequence similarity to endogenous A. aegypti PK2 peptides (Supplementary Table S1), we used the R. prolixus PK2b peptide ([Paluzzi and O'Donnell, 2012]), henceforth referred to as RhoprPK2b, for motility bioassays. Commercially synthesized peptides (Genscript, Piscataway, NJ, United States), […] ([…]) and RhoprPK2[…]), were used to examine myomodulatory activity. […] To assess whether PK1 peptides plays a role in regulating rectal motility, contractions were monitored in saline to obtain baseline contraction rates and subsequently following […] or 5-HT treatments, using probes connected to an impedance converter (UFI model 2991, Morro Bay, CA, United States) connected to a Powerlab 4/30 and laptop computer running LabChart […].0 software (AD Instruments, Colorado Springs, CO, United States). […] Probes were positioned on either side of the rectum by observation with a dissecting microscope (Olympus SZ61), and contractile responses were recorded on LabChart […].0 software (AD Instruments, Colorado Springs, CO, United States). Contractions were monitored for two minutes prior to, and after the addition of either […] or 5-HT. […]

[3] = test system: isolated ilea of female A. aegypti; assay: Ileal motility assay (video recordings); design: species or system Aedes aegypti; conditions: Figure 6, 1 μM, 5-HT added together with 1 μM RhoprPK2b
Description: Hindgut contraction assays were conducted on isolated […] of female A. aegypti. […] The isolated tissue was secured with minutien pins within a Sylgard-lined petri-dish. Given its high sequence similarity to endogenous A. aegypti PK2 peptides (Supplementary Table S1), we used the R. prolixus PK2b peptide ([Paluzzi and O'Donnell, 2012]), henceforth referred to as RhoprPK2b, for motility bioassays. Commercially synthesized peptides (Genscript, Piscataway, NJ, United States), […] ([…]) and RhoprPK2[…]), were used to examine myomodulatory activity. Serotonin (5-hydroxytryptamine, 5-HT; Sigma-Aldrich, Oakville, ON, Canada), previously shown to stimulate A. aegypti hindgut contractions ([Messer and Brown, 1995]), was used as a stimulatory control. Given the inhibitory properties of myoinhibitory peptides (having the consensus W(X6)W-NH2 carboxyl terminus) on insect hindgut motility ([Lange et al., 2012]), RhoprMIP-7 ([…]; Genscript, Piscataway, NJ, United States; [Paluzzi et al., 2015]) was used as an inhibitory control. […] Unlike the rectum, the mosquito ileum produces weaker contractions that we were unable to measure using an impedance converter as described above. […] The dissected gut was pinned in the midgut and rectum to allow the ileum to freely contract in saline and following treatments. Contractions were recorded for 2 min in saline that was used for baseline activity measurements, followed by three subsequent 2-min recordings, including: […] The RhoprPK2b was added along with the stimulatory or inhibitory compound (5-HT or RhoprMIP-7, respectively), to maintain its 1 μM concentration in the bath. […] To account for any potential changes in tissue contractile activity upon adding solutions to the bath, each of these variables were measured relative to baseline saline recordings of the same preparation as a ratio of change, where a value above or below one indicates an increase or a decrease, (respectively), in the rate, duration or length between each contraction in response to the treatment.

Row | SMILES | activation of PK1-R (in words) (A. aegypti PK1-R) | activation of PK2-R (in words) (A. aegypti PK2-R; luminescent response) | activation of PK2-R relative to the highly potent pyrokinins (A. aegypti PK2-R; very high concentrations) | pIC50 [1] | fold change in contraction rate of female recta relative to baseline in saline ([2]; female recta) | fold change in contraction rate of male recta relative to baseline in saline ([2]; male recta) | ileal contraction frequency relative to baseline ([3]; 2-min recordings, mean of 15 preparations) | duration of each ileal contraction relative to baseline ([3]; 15 preparations) | length of time between ileal contractions relative to baseline ([3]; 15 preparations)
1 | CC(C)C[C@H](NC(=O)CNC(=O)[C@@H]1CCC(=O)N1)C(=O)N[C@H](C(=O)N1CCC[C@H]1C(=O)N[C@@H](Cc1ccccc1)C(=O)N1CCC[C@H]1C(=O)N[C@@H](CCCNC(=N)N)C(=O)N[C@H](C(N)=O)C(C)C)C(C)C [AedaeCAPA-2] ([pGlu]GLVPFPRV-NH2) | effective in activating PK1-R at high concentrations | only active on PK2-R at very high concentrations | ≤ 25% | 7.77 |  |  |  |  | 
2 | NCCc1c[nH]c2ccc(O)cc12 [5-HT, 5-hydroxytryptamine] |  |  |  |  | 1.97 fold | 2.48 fold | 2.88 fold | effectively reduced | effectively reduced
